Test results reported in patent US20030143172A1, “Hair treatment agent” (priority 2001, published 2003).

Columns and labels:
[1] = Ability of preventing hair damage caused by sunlight (weather meter irradiation, ΔE of hair); details: pH 7.2, irradiation 24 hours
Procedure: An APS solution, an AG solution, which were each adjusted to a pH of 7.2 and a concentration of 10 mM or 100 mM, and purified water (control) each was charged into a polyethylene bag and in respective bags, from 70 to 80 g of hair previously measured on the color (L*a*b* color specification) by a spectrocolorimeter (Macbeth Gretag APM50) was enclosed. After the immersion for about 2 hours, light was irradiated thereon using a weather meter (high energy xenon weather meter, manufactured by Suga Shikenki K. K.). The irradiation time was 24 hours and the integrated light intensity was about 10,000 kj/m^2. The hair after the irradiation was washed with purified water, air-dried and then subjected to the measurement of color (L*a*b* color specification) and from the values obtained, the color difference ΔE value was calculated.

[2] = Ability of preventing decolorization of melanin pigment caused by chlorine (absorbance at 400 nm); set-up: species or system sepia officinailis; details: for 3 Hours After Addition abs / 6 Hours After Addition abs / Before Addition abs: 400 nm; for 3 Hours After Addition abs / Residual Ratio, 3H: 3 hours after addition of chlorine water; for 6 Hours After Addition abs / Residual Ratio, 6H: 6 hours after addition of chlorine water; for Before Addition abs: before addition of chlorine water (baseline)
Procedure: A melanin pigment (sepia officinailis) was added to a 2 N aqueous sodium hydroxide solution and dissolved under heating at 80° C. for 2 hours to adjust the melanin pigment content in the solution to 50 ppm. This melanin pigment solution was divided into 5 vessels and 5 kinds in total of sample solutions were prepared, namely, solutions adjusted to an APS concentration of 10 mM and 50 mM, solutions adjusted to an AG concentration of 10 mM and 50 mM, and a control having added thereto neither APS nor AG. Then, 4 ml of each solution was sampled in a sampling bottle and 0.5 ml of commercially available chlorine water (free chlorine concentration: about 0.43%) was added to each sampling bottle. As a blank, a melanin pigment solution was used. The prevention of melanin decolorization was evaluated by measuring the absorbance (abs) at 400 nm using a spectrophotometer when 3 hours (3 H) and 6 hours (6H) were passed after the addition of chlorine water.

[3] = Ability of preventing hair damage caused by chlorine (color difference ΔE of hair); set-up: species or system human; details: aqueous 10 mM solution, chlorine water, one hour
Procedure: 120 ml of an aqueous 10 mM APS solution, 120 ml of an aqueous 10 mM AG solution and 120 ml of purified water each was poured into two bottles with a screw opening. In the aqueous 10 mM APS solution, the aqueous 10 mM AG solution or the purified water, hair of an adult and hair of a child, which were previously subjected to the measurement of color (L*a*b color specification) by a spectrocolorimeter (Macbeth Gretag APM50), each was immersed in an amount of 70 to 80 mg while stirring. To each solution in which the hair was immersed, 15 ml of a commercially available chlorine water (concentration of free chlorine: about 0.43%) was added. After stirring for one hour, the hair was filtered, washed with water and air-dried. The resulting hairs were measured on the color (L*a*b* color specification) and from the values obtained, the color difference ΔE value was calculated.

[4] = Hydroxy radical-scavenging ability (ESR-spin trap method); format: biochemical
Procedure: Using “ESR-spin trap method”, the radical scavenging in percentage of each of ascorbyl 2-phosphate sodium salt (APS), ascorbyl 2-phosphate magnesium salt (APM) and ascorbyl 2-glucoside (AG) was measured. The radicals were chemically generated.
10 μl of 1M HEPES buffer solution (pH: 7.2), 10 μl of 1 mM diethylenetriaminepentaacetic acid, each of 20 μl of APS, APM or AG solution, 100 μl of purified water, 40 μl of 40 mM 2,2′-azobis(2-methylpropionamidine)dihydrochloride and 20 μl of 0.5 M 5,5-dimethyl-1-pyrroline-N-oxide were added and mixed. The obtained solutions were sequentially enclosed into flat cells for ESR and the cells were placed in an ESR apparatus (“JES-RE1X”, manufactured by JEOL Ltd.) and subjected to the measurement of hydroxy radical-scavenging ability. The hydroxy radical-scavenging ability is shown by S/M value (area value of spectrum/area value of manganese marker) and the scavenging ratio is shown by percentage (%).

[5] = Dechlorinating ability (iodometric titration of free chlorine in chlorine water); details: initial free chlorine 0.43
Procedure: To chlorine water having a previously determined free chlorine concentration, APS or AG was added and the amount of free chlorine decreased was measured. The free chlorine amount was measured by iodometric titiration.
To each of three Erlenmeyer flasks with a stopper, 10 ml of chlorine water having a known free chlorine concentration was added and thereto, APS or AG in an equimolar amount, 1.5 times molar amount or 2 times molar amount to the free chlorine in the solution was added and stirred. After 5 minutes, 10 minutes, 15 minutes and 20 minutes, the amount of free chlorine was titrated.
In the titration, 2 ml of each reaction solution was charged into another Erlenmeyer flask with a stopper, 50 ml of distilled water was added thereto, 1.0 g of potassium iodide and 1 ml of a 0.2% starch solution were further added and after stirring, a 0.1 N sodium thiosulfate standard solution was added dropwise. The point where purple color was faded out was designated as a final point. From the amount of sodium thiosulfate added dropwise at this time, the amount of free chlorine was calculated.

[6] = molar ratio additive:free chlorine 1.0:1.0
[7] = molar ratio additive:free chlorine 1.5:1.0
[8] = molar ratio additive:free chlorine 2.0:1.0

Row | SMILES | ΔE Value of Weather Meter Treated-hair ([1]; concentration 10 mM) | ΔE Value of Weather Meter Treated-hair ([1]; concentration 100 mM) | 3 Hours After Addition abs ([2]; additive 10 mM) [abs] | 6 Hours After Addition abs ([2]; additive 10 mM) [abs] | Before Addition abs ([2]; additive 10 mM) [abs] | Residual Ratio, 3H ([2]; additive 10 mM) | Residual Ratio, 6H ([2]; additive 10 mM) | 3 Hours After Addition abs ([2]; additive 50 mM) [abs] | 6 Hours After Addition abs ([2]; additive 50 mM) [abs] | Before Addition abs ([2]; additive 50 mM) [abs] | Radical scavenging, % (S/M relative to 0 mM = 100.0) ([4]; concentration 0.01 mM) [%] | S/M (area value of spectrum/area value of manganese marker) ([4]; concentration 0.01 mM) | Radical scavenging, % (S/M relative to 0 mM = 100.0) ([4]; concentration 0.03 mM) [%] | S/M (area value of spectrum/area value of manganese marker) ([4]; concentration 0.03 mM) | Radical scavenging, % (S/M relative to 0 mM = 100.0) ([4]; concentration 0.1 mM) [%] | S/M (area value of spectrum/area value of manganese marker) ([4]; concentration 0.1 mM) | Radical scavenging, % (S/M relative to 0 mM = 100.0) ([4]; concentration 0.3 mM) [%] | S/M (area value of spectrum/area value of manganese marker) ([4]; concentration 0.3 mM) | Radical scavenging, % (S/M relative to 0 mM = 100.0) ([4]; concentration 1 mM) [%] | S/M (area value of spectrum/area value of manganese marker) ([4]; concentration 1 mM) | further results
1 | O=C1O[C@H]([C@@H](O)CO)C([O-])=C1OP(=O)([O-])[O-].[Na+].[Na+].[Na+] [APS, ascorbyl 2-phosphate sodium salt] | 14.36 | 4.54 | 0.449 | 0.453 | 0.577 | 0.773 | 0.785 | 0.545 | 0.505 | 0.592 | 103.1 | 0.67 | 104.6 | 0.68 | 78.5 | 0.51 | 53.8 | 0.35 | 16.9 | 0.11 | Residual Ratio, 3H ([2]; additive 50 mM): 0.921; Residual Ratio, 6H ([2]; additive 50 mM): 0.853; ΔE Value of Hair Treated With Chlorine ([3]; hair of Adult person): 0.4; ΔE Value of Hair Treated With Chlorine ([3]; hair of child): 0.5; Free chlorine After 5 Minutes [5, 6]: 0.02%; Free chlorine After 10 Minutes [5, 6]: 0.012%; Free chlorine After 15 Minutes [5, 6]: 0.008%; Free chlorine After 20 Minutes [5, 6]: 0%; Free chlorine After 5 Minutes [5, 7]: 0.005%; Free chlorine After 10 Minutes [5, 7]: 0%; Free chlorine After 15 Minutes [5, 7]: 0%; Free chlorine After 20 Minutes [5, 7]: 0%; Free chlorine After 5 Minutes [5, 8]: 0%; Free chlorine After 10 Minutes [5, 8]: 0%; Free chlorine After 15 Minutes [5, 8]: 0%; Free chlorine After 20 Minutes [5, 8]: 0%
2 | O=C1O[C@H]([C@@H](O)CO)C([O-])=C1OP(=O)([O-])[O-].O=C1O[C@H]([C@@H](O)CO)C([O-])=C1OP(=O)([O-])[O-].[Mg+2].[Mg+2].[Mg+2] [APM, ascorbyl 2-phosphate magnesium salt] | – | – | – | – | – | – | – | – | – | – | 89.2 | 0.58 | 92.3 | 0.60 | 81.5 | 0.53 | 64.6 | 0.42 | 18.5 | 0.12 | –
3 | O=C1O[C@H]([C@@H](O)CO)C(O)=C1O[C@H]1O[C@H](CO)[C@@H](O)[C@H](O)[C@H]1O [AG, ascorbyl 2-glucoside] | 10.72 | 6.01 | 0.458 | 0.447 | 0.575 | 0.797 | 0.777 | 0.553 | 0.540 | 0.569 | 98.5 | 0.64 | 89.2 | 0.58 | 98.5 | 0.64 | 90.8 | 0.59 | 61.5 | 0.40 | Residual Ratio, 3H ([2]; additive 50 mM): 0.972; Residual Ratio, 6H ([2]; additive 50 mM): 0.949; ΔE Value of Hair Treated With Chlorine ([3]; hair of child): 1.1; Free chlorine After 5 Minutes [5, 6]: 0.033%; Free chlorine After 10 Minutes [5, 6]: 0.02%; Free chlorine After 15 Minutes [5, 6]: 0.01%; Free chlorine After 20 Minutes [5, 6]: 0%; Free chlorine After 5 Minutes [5, 7]: 0.008%; Free chlorine After 10 Minutes [5, 7]: 0%; Free chlorine After 15 Minutes [5, 7]: 0%; Free chlorine After 20 Minutes [5, 7]: 0%; Free chlorine After 5 Minutes [5, 8]: 0%; Free chlorine After 10 Minutes [5, 8]: 0%; Free chlorine After 15 Minutes [5, 8]: 0%; Free chlorine After 20 Minutes [5, 8]: 0%
